Data as given in patent publication US12390423B2 (priority 2019, dated 2025).

Legend:
C2C12 myotubes = assay: Cellular ATP content in C2C12 myotubes; type: cell-based, mouse; details: 0.5 mM palmitate 24 h, AVO 25 μM, DCA 1 mM, TRI 25 μM
Protocol: Total cellular ATP content was determined using the ATP bioluminescent assay kit (Calbiochem, 119107). Briefly, cells were seeded in white walled 96-well plates (1.2×10^4 cells/well for INS-1 and 2×10^4 cells/well for C2C12) and treated for 24 h (C2C12 cells were differentiated for 5 days prior to treatments whereas INS-1 cells were treated 24 h after seeding). After treatment, culture media was removed, and cells were lysed with nucleotide releasing buffer with gentle shaking for 5 min. ATP monitoring enzyme was then added to cell lysates and plates and luminescence was read in a Biotek Synergy HT spectrophotometer (Biotek; Winooski, VT).

[1] = test system: insulin signaling (pAkt-Ser473), MAPK, AMPK; assay: Immunoblotting (pAkt, pERK1/2, pP38, pAMPKα, PGC-1α) and NAO mitochondrial mass in C2C12 myotubes; type: cell-based, mouse; details: 0.5 mM palmitate 24 h, 100 nM insulin 30 min, AvoB 25 μM, DCA 1 mM, TRI 25 μM
Protocol: For all ROS studies, INS-1 (832/13) cells and C2C12 myotubes were treated with or without palmitate and FAO inhibitors for 24 h in low glucose cell culture media as described for the FAO assay. After treatment, cells were trypsinized and re-suspended in PBS containing 5 μM of the fluorescent dye MitoSOX® (Molecular Probes, Invitrogen) and allowed to incubate for 5-15 minutes in a humidified atmosphere containing 5% CO2 at 37° C. Cells were then washed in PBS, placed in a 96 well plate and fluorescence was measured by flow cytometry. ROS was quantified by normalizing the mean fluorescence values of live gated cells to vehicle control. Mitochondrial membrane potential (MMP) in INS-1 (832/13) and C2C12 myotubes was measured using the cationic fluorescent dye JC-1 (Molecular Probes). JC-1 accumulates in the mitochondrial matrix in an MMP dependent manner. JC-1 fluoresces green in the cytosol where it exists as a monomer, after entering the mitochondria JC-1 monomers form J aggregates and fluoresce red, thus the red/green fluorescence ratio is used to determine MMP. After all treatments, cells were washed, trypsinized and re-suspended in PBS containing 1 μM JC-1 and allowed to incubate for 5-10 minutes in a humidified atmosphere containing 5% CO2 at 37° C. Cells were then washed in PBS, placed in a 96 well plate and fluorescence was measured by flow cytometry. MMP was quantified by normalizing the mean fluorescence values of live gated cells to vehicle control. Mitochondrial mass was measured using 10-N-nonyl acridine orange (NAO; Enzo Life Sciences, ENZ-52306), which accumulates in the mitochondria in an MMP-independent manner where it binds to cardiolipin in the inner mitochondrial membrane. Cells were treated, washed and collected as described and incubated with 0.35 μM NAO and green fluorescence was measured using flow cytometry. In all analysis (ROS, MMP and mitochondrial mass), forward vs side scatter plots were gated to exclude debris (e.g., dead cells), as cell death is associated with increased ROS and altered membrane potentials. For all cell culture experiments, after drug treatments cells were washed with chilled phosphate-buffered saline (PBS), and lysed in chilled lysis buffer with 1× protease inhibitor cocktail (Sigma). RIPA lysis buffer (Sigma-Aldrich) was used for INS-1 (832/13) cells and muscle lysis buffer for C2C12 myotubes (20 mM HEPES, 10 mM NaCl, 1.5 mM MgCl2, 1 mM DTT, 20% glycerol, and 0.1% Triton-X100). Cells were scraped, mechanically homogenized using a syringe and centrifuged at 14,000×g for 20 min at 4° C. and the supernatants were collected. For preparation of all gastrocnemius muscle lysates, 10 mg frozen tissue (wet weight) was washed in chilled PBS, placed in a dounce homogenizer, lysed in muscle lysis buffer and centrifuged at 14,000×g for 20 min at 4° C. and the supernatant was collected. Protein content for cell and tissue lysates was measured using the BCA protein assay kit (ThermoFisher) according to manufacturer's protocol. Thirty μg protein lysates were prepared in loading buffer and immunoblotting was performed by heating lysates for 5 minutes at 95° C. and subjecting them to gel electrophoresis on 10% SDS-polyacrylamide gels at 150 V for 75 minutes. Using a semi-dry transfer apparatus (Bio-Rad) the gels were then transferred at 25V for 45 minutes to a PVDF membrane and blocked with 5% BSA (Sigma) in tris-buffered saline-tween (TBS-T) for 1 hour. […]

INS-1 (832/13) cells [2] = assay: Cytosolic calcium determination (fluo-3AM) in INS-1 (832/13) cells; type: cell-based, rat; details: 0.5 mM palmitate, non-stimulatory glucose, AvoB 25 μM, ETO 100 μM, TMB-8 10 μM
Protocol: INS-1 (832/13) cells were treated as described for the FAO assays but also with metabolic modulators dichloroacetate (DCA) (1 mM) and trimetazidine (25 μM) as well as 10 μM endoplasmic reticulum calcium blocker 8-(N,N-Diethylamino)-octyl-3,4,5-trimethoxybenzoate HCl (TMB-8) (Sigma Aldrich) or 25 nM cyclosporin (Sigma Aldrich) in the presence of 0.5 mM palmitate/1 mM L-carnitine. Cytosolic calcium was measured in INS-1 (832/13) cells using fluo-3AM (Invitrogen, F1241) charged fluorescent dye that accumulates in the cytosol and emits green fluorescence after binding calcium ions. A stock solution of 10 mM fluo-3AM was diluted to 5 μM in fluo-3AM loading buffer (10 mM 4-(2-hydroxyethyl)-1-piperazineethanesulfonic acid (HEPES), 137 mM NaCl, […], 1 mM Na2HPO4, 5 mM glucose, and 0.5 mM MgCl2 (pH 7.4)]. After treatment, cells were incubated in fluo-3AM loading buffer for 30 min at 37° C. with gentle agitation after which cells were washed twice with PBS, trypsinized and collected for flow cytometry analysis. Cytosolic calcium was quantified by taking the mean green fluorescence values of live gated cells and normalizing to vehicle control.

INS-1 (832/13) cells [3] = assay: Glucose stimulated insulin secretion (GSIS) in INS-1 (832/13) cells; type: cell-based, rat; details: 0.5 mM palmitate 24 h, AvoB 25 μM, ETO 100 μM
Protocol: To measure glucose stimulated insulin secretion (GSIS) in INS-1(832/13) cells a standard protocol was adopted. […] After treatments were complete, cell media was replaced with KRB (Krebs-Ringer Bicarbonate) buffer. Cells were then challenged with 3 mM glucose for 2 h in KRB buffer after which 500 μL KRB buffer was collected and frozen in −80° C. until analysis. For another 2 h, cells were challenged with 16 mM glucose after which 500 μL KRB was collected and frozen in −80° C. until analysis. The amount of insulin released into the KRB buffer was determined by an ELISA kit (Millipore, Rat/Mouse Insulin Detection kit). Data was normalized for cellular protein content, as determined by the Micro-BCA Protein Assay kit. The glucose-dependent insulin secretory index (GSIS16/3), defined as the ratio between the insulin secretion at 16 mM (stimulatory, surrogate to postprandial glucose levels) and 3 mM (basal, surrogate to fasting glucose levels) glucose was also calculated.

SMILES | Total cellular ATP content (C2C12 myotubes) | Insulin signaling (insulin stimulated phosphorylation of AKT Ser473) [1] | Cytosolic Ca2+ (Fluo-3AM) (INS-1 (832/13) cells [2]) | Glucose stimulated insulin secretion (GSIS) (INS-1 (832/13) cells [3])
COc1ccc(CN2CCNCC2)c(OC)c1OC [trimetazidine, reference compound] | did not exert such effects | did not exert such effects | – | –
CCN(CC)CCCCCCCCOC(=O)c1cc(OC)c(OC)c(OC)c1.Cl [TMB-8, 8-(N,N-Diethylamino)-octyl-3,4,5-trimethoxybenzoate HCl] | – | – | able to reduce cytosolic Ca^2+ | –
CCOC(=O)[C@@]1(CCCCCCOc2ccc(Cl)cc2)CO1 [ETO, etomoxir, reference compound] | – | – | able to reduce cytosolic Ca^2+ | GSIS was higher
